Experimental findings from US10570177B2, “P3 peptidylic inhibitors for treating CAG-repeat RNA toxicity in polyglutamine diseases” (The Chinese University of Hong Kong, priority 2017, dated 2020) are described below.

A short description of series [1]: In vitro stability in rat plasma. To be noted: 37° C. Type of series: in vitro ADME. The protocol: (§1) Sprague-Dawley (SD) rats (male, 180-200 g) were supplied by the Laboratory Animal Services Centre at The Chinese University of Hong Kong. All animal studies were conducted under the approval of the Animal Ethics Committee of The Chinese University of Hong Kong, and were performed in accordance with relevant guidelines and regulations. Blank rat brain homogenate was prepared by ultrasonic probe homogenization (Micoson XL-2000, Misonix, Framingdale, N.Y., USA) of brains collected from the control rats. Blank rat plasma was prepared by centrifugation (8000 rcf for 3.5 min) of blood collected from control rats. […] The mixtures were incubated at 37° C. with 100 rpm in a water bath for 1 or 3 hr. The incubation was terminated by addition twice the volume of acetonitrile and centrifugation at 13000 rcf for 10 min. The supernatant was collected for LC/MS/MS analysis.

The nature of series [2]: In vitro stability in rat brain homogenate. Type of series: in vitro ADME. The settings on record: 37° C. How it is done:
as §1

Series [3] is described as follows: Plasma pharmacokinetic study in SD rat. To be noted: for AUC0-last: Intranasal administration (pre-treated with 0.5% chitosan). How it is done:
(§2) SD rats (180-200 g) were anesthetized with an intraperitoneal injection of ketamine (60 mg/kg) and xylazine (6 mg/kg) and received a minor surgery of cannulation with a polythene tube (0.4 mm i.d., 0.8 mm o.d., Harvard Apparatus, Holliston, Mass., USA) in the left jugular vein. The rats received an overnight recovery with free access to food and water. […] For the pharmacokinetic study, after the drug administration, blood samples were collected from the catheter at appropriate time intervals (2, 5, 10, 15, 20, 30, 45, 60, and 90 min). After each collection, 0.2 mL of saline containing 25 IU heparin was injected to compensate for the blood loss. Plasma was collected after centrifugation at 8000 rcf for 3.5 min and stored at −80° C. until analysis. For brain uptake study, at 20 min, the rat was anesthetized and perfused by 500 mL saline, and the whole brain was collected. The brain was wiped by tissue paper to remove excess water, meninges and blood vessels followed by storage at −80° C. until analysis.
Aliquot of plasma sample (80 μL) was mixed with 160 μL acetonitrile. The mixture was vortexed for 1 min and followed by centrifugation at 13000 rcf for 10 min. The supernatant was collect and subjected to LC/MS/MS analysis.
Agilent 6430 Triple Quadrupole LC/MS/MS system (Agilent Technologies, CA, USA) was employed for the analysis. For analysis of P3V8, chromatographic separation was achieved on a SunFire C8 Column (250 mm×4.6 mm, 5 μm). The mobile phase of water containing 0.2% formic acid (A) and acetonitrile (B) was used with a gradient elution (0-5 min, 20-70% B). The flow rate was 0.8 mL/min. Multiple reactions monitoring (MRM) with fragmentation transition of 500 to 129 in positive ion mode was employed for quantization of P3V8. […] Mobile phase of water (A) and acetonitrile (B) was used. The gradient elution for plasma samples was 0-4 min, 30-95% B, and for brain samples was 0-9 min, 10-95% B. The flow rate was 0.8 mL/min.
Plasma concentration verse time profiles were analyzed by WinNonlin (Pharsight Corporation, Mountain View, Calif., USA, Version 2.1) to obtain the pharmacokinetics parameters. Other data were analyzed by one-way ANOVA followed by post hoc Tukey test or unpaired t-test. “*”, “**”, “***” and “****” represent P<0.05, P<0.01, P<0.001 and P<0.0001 respectively, which are considered statistically significant.

Series [4] in a line: Brain uptake study in SD rat. How it is done:
as §2
To prepare brain homogenate, the whole brain of each rat was minced. Saline (2 mL/g brain) was added followed by ultrasonic probe homogenization on ice. For analysis of P3V8, aliquot of brain homogenate (100 μL) was mixed with 200 μL acetonitrile. The mixture was vortexed for 1 min and followed by centrifugation at 13000 rcf for 10 min to collect the supernatant. […]

Series [5] addresses MJDCAA/G78 RNA. As to the kind of experiment: Isothermal titration calorimetry binding assay, expanded MJDCAA/G78 RNA. The protocol: To test whether P3V8 specifically targets expanded CAG RNA, ITC experiments were performed using unexpanded CAG RNA (MJDCAG27 RNA), expanded CAG RNA (MJDCAG78 RNA), and expanded CAA/G RNA (MJDCAA/G78 RNA), respectively, to investigate whether the binding of P3V8 is RNA expansion-dependent and sequence-dependent (Table 6).
Experiments were carried out using a MicroCal iTC200 isothermal titration calorimeter (GE Healthcare) at 25° C. Data were analyzed using the Origin® scientific plotting software version 7 (Microcal Software Inc.). All RNAs and peptides were dissolved in binding buffer (20 mM MOPS, pH 7.0; 300 mM NaCl) and 0.7 mM of peptide was titrated into 0.5 μM of RNA for each experiment. The concentration of RNA was estimated with appropriate extinction coefficients at 260 nm on a Nanodrop 2000 (Thermo Scientific). A reference power of 8 μcal/s was used with an initial 0.5 μl of injection of peptide followed by 2 μl for all subsequent titrations points with a 60 sec initial equilibrium delay and 150 sec pause between injections. The samples were stirred at a speed of 1000 rpm throughout the experiment. The thermal titration data were fitted to the ‘one binding site model’ to determine the dissociation constant (KD). Each experiment was repeated at least 3 times with consistent results obtained.
Background: Isothermal titration calorimetry measures the heat released or taken up as one component is titrated into another.

Where [6] appears, read: 1000 ng/mL, incubation for 1 hr.
The mark [7] stands for this setting: 2000 ng/mL, incubation for 1 hr, 60 min.
[8] abbreviates: 2000 ng/mL, incubation for 3 hr.
[9] abbreviates: Intravenous administration, 3 μmol/kg, SD rats.
Setting [10] is: 2000 ng/mL, incubation for 1 hr.

Several values for one entry are separate records, joined by “and”; a condition that tells them apart may be missing. Equal entries are not always repeated. Marks after values point to notes of the source that are not given here. Residues, ends and D or L forms follow the SMILES beside them. *: point of attachment. Palmitoyl = CCCCCCCCCCCCCCCC(=O)*

For orientation: Cmax means the highest concentration seen after dosing. In the case of `CCCCCCCCCCCCCCCC(=O)N[C@@H](CC(=O)O)C(=O)NCC(=O)N[C@@H](CCCCN)C(=O)N[C@@H](CO)C(=O)N[C@@H](CCCCN)C(=O)NCC(=O)N[C@H](C(=O)N[C@@H](C)C(=O)N[C@@H](Cc1ccc(O)cc1)C(=O)N[C@H](C(=O)N[C@@H](CCC(=O)O)C(=O)N[C@@H](Cc1ccccc1)C(=O)N[C@@H](CCCCN)C(N)=O)[C@@H](C)CC)[C@@H](C)CC` [L1P3V8] (Palmitoyl-DGKSKGIAYIEFK-NH2), the Pecentage of remained in series [1] (500 ng/mL, incubation for 1 hr) is 88.1 ± 4.9%; in series [2] (500 ng/mL, incubation for 1 hr), <20^# %; in series [2] (500 ng/mL, incubation for 3 hr), <20^# %; in series [2] (setting [6]) it was 22.8 ± 1.2 %; in series [2] (1000 ng/mL, incubation for 3 hr), 15.8 ± 0.7%; in series [2] (setting [7]), 45.0 ± 3.5 %. In addition, the Pecentage of remained in series [2] (setting [8]) is on record as roughly 21.2%; in series [2] (2000 ng/mL, incubation for 3 hr, 180 min), 21.2 ± 3.0%. For the same compound, the remaining at 1 h, 1000 ng/mL in series [1] (male, Sprague-Dawley, rat, 1000 ng/mL, incubation for 1 hr, read-out: Pecentage of remained) stood at 98.7 ± 3.9%. The remaining at 3 h, 2000 ng/mL in series [2] (male, Sprague-Dawley, rat, tissue homogenate, 2000 ng/mL, incubation for 3 hr, read-out: Pecentage of remained) was roughly 21%. In series [3] (3 μmol/kg, SD rats), the AUC0-last is 2277 ± 558*** min * nmol/L. In series [3] (setting [9]), this compound gave a Cmax of 10400 ± 1220 nM. In addition, the T1/2 in series [3] (setting [9]) is listed as 17 min. The “plasma concentration 90 min after dosing” value in series [3] (intravenous, 3 μmol/kg) amounted to 190 nM. In series [4] (Sprague-Dawley, rat, in vivo, iv, 3 umol/kg), this compound displayed a tissue level at time molar at 20 min of 0.013 nmol/g.
For orientation: Kd means the concentration at which binding is half-saturated. The low end stands for tighter binding, the high end for weaker binding. In series [5] (ITC, 0.7 mM peptide into 0.5 μM MJDCAA/G78 RNA, mean ± S.E.M.), Ac-DGKSKGIAYIEFK-NH2 [P3V8] came in with a Kd of 2.94 ± 0.96 µM. In series [5] (expanded CAA/G RNA vs expanded MJDCAG78 RNA), the “lower affinity than for expanded CAG RNA” value is recorded as 6-9 fold. Further, the Pecentage of remained is 20.7% and 20.7 ± 3.3% in series [1] (setting [10]); “almost completely degraded” in series [1] (setting [8]); 4.0 ± 1.6% in series [2] (setting [6]); 3.3% in series [2] (setting [10]); 3.3 ± 0.6% in series [2] (setting [7]); “almost completely degraded” in series [2] (setting [8]). Also, the remaining at 1 h, 2000 ng/mL in series [1] (male, Sprague-Dawley, rat, rat plasma, 2000 ng/mL, incubation for 1 hr, read-out: Pecentage of remained) was 21%; in series [2] (male, Sprague-Dawley, rat, rat brain homogenate, 2000 ng/mL, incubation for 1 hr, read-out: Pecentage of remained), 3%. Also, the AUC0-last in series [3] (3 μmol/kg, SD rats) amounted to 85 ± 32 nmol·min/L. This compound had a peak concentration (Cmax) in series [3] (setting [9]) of 452 ± 22 nM. The T1/2 result in series [3] (rat, in vivo, iv, 3 umol/kg) is on record as “too short to be determined”. Moreover, the brain concentration result in series [4] (20 min after intravenous administration, 3 μmol/kg) was “no and not detected”.
